This is an account of results in paper PMC12136037, “Type II kinase inhibitors that target Parkinson’s disease–associated LRRK2” (Science Advances, 2025).

Values joined by “and” are separate entries in the source; they are usually repeats but may differ in a detail not shown here. Equal values may be shown once.

For assay [1], the target named is T1, LRRK2^RCKW (Homo sapiens, UniProt Q5S007).
T1 construct: LRRK2 R1327 to E2527; His6-Z-tag (TEV cleavable) (N, cleaved yes); host or cells: Sf9 insect cells (baculovirus)
T1 sequence (Q5S007 1327-2527): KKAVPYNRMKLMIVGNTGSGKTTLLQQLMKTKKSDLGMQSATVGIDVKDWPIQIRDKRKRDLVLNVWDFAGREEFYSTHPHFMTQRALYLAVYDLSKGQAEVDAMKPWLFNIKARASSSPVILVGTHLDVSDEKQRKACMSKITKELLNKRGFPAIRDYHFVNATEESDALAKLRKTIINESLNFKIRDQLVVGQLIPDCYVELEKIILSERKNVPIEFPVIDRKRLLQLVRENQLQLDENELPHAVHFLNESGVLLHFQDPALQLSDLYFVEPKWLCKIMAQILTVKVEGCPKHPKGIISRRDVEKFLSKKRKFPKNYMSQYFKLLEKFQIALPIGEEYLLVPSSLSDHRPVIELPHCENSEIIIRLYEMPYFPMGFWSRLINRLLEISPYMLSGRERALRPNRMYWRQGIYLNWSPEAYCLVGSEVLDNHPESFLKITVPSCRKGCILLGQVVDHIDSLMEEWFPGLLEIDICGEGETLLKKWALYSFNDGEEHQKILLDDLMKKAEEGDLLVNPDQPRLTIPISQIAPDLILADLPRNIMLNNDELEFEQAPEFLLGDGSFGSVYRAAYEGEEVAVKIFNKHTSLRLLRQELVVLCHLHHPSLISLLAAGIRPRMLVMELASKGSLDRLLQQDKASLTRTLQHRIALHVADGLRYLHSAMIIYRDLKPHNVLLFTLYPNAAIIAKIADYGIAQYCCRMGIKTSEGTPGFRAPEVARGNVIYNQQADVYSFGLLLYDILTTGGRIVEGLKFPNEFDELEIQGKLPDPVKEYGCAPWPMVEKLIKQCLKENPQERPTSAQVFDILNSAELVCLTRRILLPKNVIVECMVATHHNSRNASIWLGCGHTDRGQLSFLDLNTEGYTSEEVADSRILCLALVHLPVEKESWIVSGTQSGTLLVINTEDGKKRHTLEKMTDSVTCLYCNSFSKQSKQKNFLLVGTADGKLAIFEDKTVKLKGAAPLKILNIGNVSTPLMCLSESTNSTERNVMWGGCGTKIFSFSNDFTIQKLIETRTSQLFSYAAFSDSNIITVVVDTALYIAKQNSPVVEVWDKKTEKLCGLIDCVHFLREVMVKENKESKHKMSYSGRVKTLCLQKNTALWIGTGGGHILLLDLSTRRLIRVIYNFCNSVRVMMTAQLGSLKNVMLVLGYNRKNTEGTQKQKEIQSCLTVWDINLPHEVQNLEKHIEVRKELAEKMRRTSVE
In words: Biochemical LRRK2 activity assay (PhosphoSense, AssayQuant SOX peptide AQT0615). The conditions noted are these: for normalized response (LRRK2 activity): normalized to 0% (no kinase) and 100% (no inhibitor) control, two singlicate columns per compound. The gist of the method:
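Controls lacked protein and compound (0%) or compound only (100%). IC50 derived by nonlinear regression of normalized response versus log[inhibitor].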

In assay [2] the target is T2, ~100 representative kinases (Homo sapiens, UniProt O94804).
T2 construct: Recombinant protein kinase domains with a concentration of 2 μM
T2 sequence (O94804 whole entry, the tested form may be a part): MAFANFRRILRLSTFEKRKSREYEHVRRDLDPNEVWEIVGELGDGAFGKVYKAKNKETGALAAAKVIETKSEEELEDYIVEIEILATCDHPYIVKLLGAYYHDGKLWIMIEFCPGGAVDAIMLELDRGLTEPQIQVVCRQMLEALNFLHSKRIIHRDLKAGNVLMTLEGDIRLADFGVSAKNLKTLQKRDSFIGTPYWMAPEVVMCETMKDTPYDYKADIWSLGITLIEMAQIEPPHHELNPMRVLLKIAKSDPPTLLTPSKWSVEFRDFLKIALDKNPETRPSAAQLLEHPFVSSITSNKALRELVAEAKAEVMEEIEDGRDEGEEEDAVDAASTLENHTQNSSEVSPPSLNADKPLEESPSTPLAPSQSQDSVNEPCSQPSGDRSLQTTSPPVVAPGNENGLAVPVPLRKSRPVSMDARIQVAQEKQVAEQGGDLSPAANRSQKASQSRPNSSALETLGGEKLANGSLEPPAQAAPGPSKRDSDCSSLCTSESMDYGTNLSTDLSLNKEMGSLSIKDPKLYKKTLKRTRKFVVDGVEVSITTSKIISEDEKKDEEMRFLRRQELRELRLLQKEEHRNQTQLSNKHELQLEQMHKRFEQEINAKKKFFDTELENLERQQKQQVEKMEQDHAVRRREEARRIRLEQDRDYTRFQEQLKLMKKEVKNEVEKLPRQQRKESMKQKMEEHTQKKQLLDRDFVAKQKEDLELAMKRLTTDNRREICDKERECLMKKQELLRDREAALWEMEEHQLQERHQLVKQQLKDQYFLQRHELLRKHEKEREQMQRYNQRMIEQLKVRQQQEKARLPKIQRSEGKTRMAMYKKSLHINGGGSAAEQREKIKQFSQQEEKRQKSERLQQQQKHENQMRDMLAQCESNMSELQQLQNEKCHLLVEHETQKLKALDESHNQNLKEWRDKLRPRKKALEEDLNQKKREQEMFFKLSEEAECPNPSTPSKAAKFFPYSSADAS
Kind of assay: DSF 100 kinase selectivity screen.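 Also: compound tested at 20 µM.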 The following applies: Protein STK10; DSF; average of three replicates. Format: binding. The protocol: (§1) Recombinant protein kinase domains with a concentration of 2 μM were mixed with a 20 μM compound solution in dimethyl sulfoxide (DMSO), 20 mM Hepes (pH 7.5), and 500 mM NaCl. SYPRO Orange (5000×, Invitrogen) was added as a fluorescence probe (1μl/ml). Subsequently, temperature-dependent protein unfolding profiles were measured using the QuantStudio 5 realtime PCR machine (Thermo Fisher Scientific, Waltham, MA, USA). […] The temperature was raised with a step rate of 3°C/min. […] Differences in melting temperature are given as ΔTm values in degrees Celsius. […]

Assay [3] concerns the target T3, ~100 representative kinases (Homo sapiens, UniProt Q9Y6E0).
T3 construct: Recombinant protein kinase domains with a concentration of 2 μM
Kind of assay: DSF 100 kinase selectivity screen.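 Also: compound tested at 20 µM.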 The conditions noted are these: protein MST3; average of three replicates. Format: binding. The procedure: as §1

The target of assay [4] is T4, ~100 representative kinases (Homo sapiens, UniProt Q13627).
T4 construct: Recombinant protein kinase domains with a concentration of 2 μM
In words: DSF 100 kinase selectivity screen.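 Also: compound tested at 20 µM.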 The assay is classed as binding. The following applies: Protein DYRK1A; average of three replicates. The protocol:
as §1

The target in assay [5] is T5, ~100 representative kinases (Homo sapiens, UniProt O15264).
T5 construct: Recombinant protein kinase domains with a concentration of 2 μM
T5 sequence (O15264 1-365): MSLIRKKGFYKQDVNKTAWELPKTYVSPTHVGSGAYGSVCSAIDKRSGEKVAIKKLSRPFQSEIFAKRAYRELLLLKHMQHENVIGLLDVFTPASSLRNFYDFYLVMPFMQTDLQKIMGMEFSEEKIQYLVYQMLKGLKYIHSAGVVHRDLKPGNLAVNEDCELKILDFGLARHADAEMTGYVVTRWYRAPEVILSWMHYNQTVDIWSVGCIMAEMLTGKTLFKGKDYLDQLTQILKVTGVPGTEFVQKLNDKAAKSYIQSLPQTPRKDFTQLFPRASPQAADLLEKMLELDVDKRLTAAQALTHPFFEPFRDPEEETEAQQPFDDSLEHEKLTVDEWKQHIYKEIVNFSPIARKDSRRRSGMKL
Kind of assay: DSF 100 kinase selectivity screen.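 Also: compound tested at 20 µM.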 The assay is classed as binding. The following applies: protein MAPK13; average of three replicates. The procedure:
as §1

T3 sequence (Q9Y6E0 whole entry, the tested form may be a part): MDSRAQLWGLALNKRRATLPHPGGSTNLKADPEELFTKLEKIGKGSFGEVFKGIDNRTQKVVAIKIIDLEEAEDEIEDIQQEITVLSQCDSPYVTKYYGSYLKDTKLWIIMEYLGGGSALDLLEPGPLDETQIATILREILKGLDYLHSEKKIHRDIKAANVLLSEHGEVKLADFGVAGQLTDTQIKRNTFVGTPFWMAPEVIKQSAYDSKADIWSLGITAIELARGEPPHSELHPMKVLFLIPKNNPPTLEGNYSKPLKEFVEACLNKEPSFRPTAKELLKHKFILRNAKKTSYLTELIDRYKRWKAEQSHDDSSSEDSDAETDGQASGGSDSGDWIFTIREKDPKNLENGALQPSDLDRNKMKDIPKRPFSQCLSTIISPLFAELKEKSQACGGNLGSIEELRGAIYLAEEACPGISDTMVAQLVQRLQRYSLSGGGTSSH

As to `COc1cc(S(C)(=O)=O)ccc1Nc1nc(N(C)C)c2c(Cl)c[nH]c2n1` [Compound 37], the IC50 (commonly the concentration needed to halve the response being measured) in assay [1] (LRRK2^RCKW kinase activity, in vitro) is 7.21 ± 2.1 nM. Also, the “normalized response (LRRK2 activity)” value in assay [1] (log[inhibitor(mol)] -4.82391) is 24.6753% and 13.9482%; in assay [1] (log[inhibitor(mol)] -5.12494) it was 2.952% and 3.194%; in assay [1] (log[inhibitor(mol)] -5.60206), -7.27% and -5.12%; in assay [1] (log[inhibitor(mol)] -6.30103), -12.6171% and -9.349%; in assay [1] (log[inhibitor(mol)] -6.90309), -7.193% and -5.751%; in assay [1] (log[inhibitor(mol)] -7.30103), 5.9468% and 5.579%. In addition, the “normalized response (LRRK2 activity)” value in assay [1] (log[inhibitor(mol)] -7.60206) is 17.6994% and 24.1378%; in assay [1] (log[inhibitor(mol)] -8.09691), 34.6729% and 53.1381%; in assay [1] (log[inhibitor(mol)] -8.61979), 84.0195% and 83.6411%; in assay [1] (log[inhibitor(mol)] -9.09691), 89.904% and 89.2624%; in assay [1] (log[inhibitor(mol)] -9.39794), 99.9785% and 100.571%. Also, the dTm in assay [2] is -1.61 K; in assay [3], -2.45 K; in assay [4], 2.45 K; in assay [5], 0.37 K.
Take `COc1cc2c(Oc3ccc(NC(=O)C4(C(=O)Nc5ccc(F)cc5)CC4)cc3F)ccnc2cc1OCCCN1CCOCC1` [Foretinib, reference compound]: the “normalized response (LRRK2 activity)” value in assay [1] (log[inhibitor(mol)] -5.12494) is -8.307% and -10.693%; in assay [1] (log[inhibitor(mol)] -5.60206), -1.8523% and 5.65%; in assay [1] (log[inhibitor(mol)] -6.30103) it was 28.3235% and 31.8978%; in assay [1] (log[inhibitor(mol)] -6.90309) it was 69.5315% and 73.0571%; in assay [1] (log[inhibitor(mol)] -7.30103), 85.8697% and 90.8136%; in assay [1] (log[inhibitor(mol)] -7.60206) it was 93.5528% and 93.9107%. For the same compound, the “normalized response (LRRK2 activity)” value was 88.4499% and 91.6177% in assay [1] (log[inhibitor(mol)] -8.09691); 92.1788% and 92.8283% in assay [1] (log[inhibitor(mol)] -8.61979); 95.8547% and 84.8889% in assay [1] (log[inhibitor(mol)] -9.09691); 98.1654% and 60.9912% in assay [1] (log[inhibitor(mol)] -9.39794). In addition, the dTm is reported as 16.81 K in assay [2], 4.06 K in assay [3], 4.04 K in assay [4] and 9.64 K in assay [5].
